Results as given in patent publication US6727246B2, “1-(aminoalkyl)-3-sulfonylindole-and-indazole derivatives as 5-hydroxytryptamine-6 ligands” (Wyeth, priority 2002, dated 2004).
Like-named read-outs stand apart in the source and are kept apart here.

Key:
[1] = target: T1, human cloned 5-HT6 receptors (Homo sapiens, UniProt P50406); experiment: 5-HT6 binding affinity, [3H]-LSD displacement on membranes of Hela cells expressing the cloned receptor; conditions: for inhibition at 1 µM: read-out: % Inhibition at 1 μM
T1 construct: expressed in transfected cells; host or cells: Hela cells (membrane preparation)
T1 sequence (P50406 whole entry): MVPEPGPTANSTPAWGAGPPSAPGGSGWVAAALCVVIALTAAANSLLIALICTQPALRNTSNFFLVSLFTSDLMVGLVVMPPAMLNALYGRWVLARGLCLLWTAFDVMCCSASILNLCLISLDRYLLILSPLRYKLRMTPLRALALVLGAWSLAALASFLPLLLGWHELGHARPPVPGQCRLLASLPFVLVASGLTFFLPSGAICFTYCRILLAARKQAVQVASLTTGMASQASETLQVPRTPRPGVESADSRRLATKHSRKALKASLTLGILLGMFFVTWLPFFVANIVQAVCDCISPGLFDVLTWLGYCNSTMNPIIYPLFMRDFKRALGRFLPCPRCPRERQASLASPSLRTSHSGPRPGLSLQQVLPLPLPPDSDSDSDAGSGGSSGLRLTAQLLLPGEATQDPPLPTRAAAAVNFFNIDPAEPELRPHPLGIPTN

[2] = [3H]-LSD 3.0 nM, Hela cell membranes, 120 min at room temperature, read-out: 5-HT6 Binding Ki

Ki [1, 2] [nM]	melting point	inhibition at 1 µM ([1]; 1 μM test compound, displacement of [3H]-LSD) [%]	SMILES	Ki [1] [nM]	inhibition at 1 µM [1] [%]
160	184 to 187 °C		CN(C)CCCCn1cc(S(=O)(=O)c2ccccc2)c2ccccc21 [Example 7]		
45	280 °C (dec.)		CN(C)CCn1cc(S(=O)(=O)c2ccccc2)c2cc(C#N)ccc21 [Example 8, 1-[2-(dimethylamino)ethyl]-3-(phenylsulfonyl)-1H-indole-5-carbonitrile]		
98	240 to 242 °C		CN(C)CCn1cc(S(=O)(=O)c2ccccc2)c2cccc(Cl)c21 [Example 10, N,N-dimethyl-N-{2-[7-chloro-3-(phenylsulfonyl)-1H-indol-1-yl]-ethyl}amine]		
169	207 to 209 °C		CN(C)CCCn1cc(S(=O)(=O)c2ccccc2)c2ccccc21 [Example 15, N,N-dimethyl-3-[3-(phenylsulfonyl)-1H-indol-1-yl]propan-1-amine]		
	198 to 201 °C	86	COc1ccc2c(c1)c(S(=O)(=O)c1ccccc1)cn2CCN [Example 21, 2-[5-methoxy-3-(phenylsulfonyl)-1H-indol-1-yl]ethylamine]		
13	210 to 211 °C		CN(C)CCn1cc(S(=O)(=O)c2cccc(F)c2)c2ccccc21 [Example 25]		
4	239 to 241 °C		CN(C)CCn1cc(S(=O)(=O)c2cccc3ccccc23)c2ccccc21 [Example 26]		
23			CN(C)CCn1cc(S(=O)(=O)c2ccccc2)c2ccc(-c3ccccc3)cc21 [Example 27]		
1010	219 to 220 °C		CN(C)CCn1cc(S(=O)(=O)Cc2ccccc2)c2ccccc21 [Example 31]		
644	223 to 225 °C		O=S(=O)(Cc1ccccc1)c1cn(CCN2CCCCC2)c2ccccc12 [Example 32]		
44	208 to 209 °C		NCCn1nc(S(=O)(=O)c2ccccc2)c2ccccc21 [Example 36, 2-[3-(phenylsulfonyl)-1H-indazol-1-yl]ethylamine]		
55	192 to 194 °C		CN(C)CCn1nc(S(=O)(=O)c2cccc(F)c2)c2ccccc21 [Example 37]		
59			COc1ccc2c(c1)c(S(=O)(=O)c1ccccc1)cn2CCNCc1ccccc1 [Example 39]		
25	220 to 221 °C		NCCn1cc(S(=O)(=O)c2ccccc2)c2ccccc21 [Example 40, 2-[3-(phenylsulfonyl)-1H-indol-1-yl]ethylamine]		
141	200 to 206 °C		NCCn1cc(S(=O)(=O)c2ccccc2)c2ccc(Cl)cc21 [Example 44, 2-[6-chloro-3-(phenylsulfonyl)-1H-indol-1-yl]ethylamine]		
25	178 to 183 °C		Cc1ccc(S(=O)(=O)c2cn(CCN)c3ccccc23)cc1 [Example 45]		
573	158 to 160 °C		Cn1ccnc1S(=O)(=O)c1cn(CCN)c2ccccc12 [Example 46]		
51	131 to 132 °C		Cc1ccc2c(S(=O)(=O)c3ccccc3)cn(CCN(C)C)c2c1 [Example 49]		
16			CN(C)CCn1cc(S(=O)(=O)c2ccccc2OC(F)(F)F)c2ccccc21 [Example 57]		
6	138 to 140 °C		CN(C)CCn1cc(S(=O)(=O)c2c(Cl)nc3sccn23)c2ccccc21 [Example 58]		

Further lines, the molecule ahead of its results:

SMILES	Ki [1, 2] [nM]	melting point	inhibition at 1 µM ([1]; 1 μM test compound, displacement of [3H]-LSD) [%]	Ki [1] [nM]	inhibition at 1 µM [1] [%]
CN(C)CCn1cc(S(=O)(=O)c2ccccc2)c2ccccc21 [Example 3]				20	
NCCCn1cc(S(=O)(=O)c2ccccc2)c2ccccc21 [Example 5, 3-[3-(phenylsulfonyl)-1H-indol-1-yl]propan-1-amine]	92				
CN(C)CCn1cc(S(=O)(=O)c2ccccc2)c2c(F)cccc21 [Example 9, N,N-dimethyl-N-{2-[4-fluoro-3-(phenylsulfonyl)-1H-indol-1-yl]ethyl}amine]		201 to 203 °C		98	
CN(C)CCn1cc(S(=O)(=O)c2ccccc2)c2c(Cl)cccc21 [Example 11, N,N-dimethyl-N-{2-[4-chloro-3-(phenylsulfonyl)-1H-indol-1-yl]-ethyl}amine]	134	209 to 211 °C			
Cc1cccc2c1c(S(=O)(=O)c1ccccc1)cn2CCN(C)C [Example 12, N,N-dimethyl-N-{2-[4-methyl-3-(phenylsulfonyl)-1H-indol-1-yl]ethyl}amine]	183	220 to 221 °C			
CCc1cccc2c(S(=O)(=O)c3ccccc3)cn(CCN(C)C)c12 [Example 13, N,N-dimethyl-N-{2-[7-ethyl-3-(phenylsulfonyl)-1H-indol-1-yl]ethyl}amine]		213 to 216 °C		65	
CN(C)CCn1cc(S(=O)(=O)c2ccccc2)c2cccc(C#N)c21 [Example 14, 1-[2-(dimethylamino)ethyl]-3-(phenylsulfonyl)-1H-indole-7-carbonitrile]	755	134 to 136 °C			35
COc1ccc2c(c1)c(S(=O)(=O)c1ccccc1)cn2CCN(C)C [Example 20]		214 to 216 °C		23	88
COc1cccc2c(S(=O)(=O)c3ccccc3)cn(CCN(C)C)c12 [Example 23]		236 to 238 °C		25	
Cc1c(S(=O)(=O)c2ccccc2)c2ccccc2n1CCN(C)C [Example 24, N,N-dimethyl-N-{2-[2-methyl-3-(phenylsulfonyl)-1H-indol-1-yl]ethyl}amine]		258 to 260 °C		18	
CN(C)CCn1nc(S(=O)(=O)c2ccccc2)c2ccccc21 [Example 35]	74				
CN(C)CCn1cc(S(=O)(=O)c2ccccc2)c2cc(F)ccc21 [Example 47]		103 to 104 °C		44	
COc1ccc2c(S(=O)(=O)c3ccccc3)cn(CCN(C)C)c2c1 [Example 48]		121 to 122 °C		23	
CN(C)CCn1cc(S(=O)(=O)c2ccccc2)c2ccc(F)cc21 [Example 50]		100 to 102 °C		46	
CN(C)CCn1cc(S(=O)(=O)c2ccccc2)c2ccc(Cl)cc21 [Example 51]		104 to 106 °C		42	
Cc1ccc(S(=O)(=O)c2cn(CCN(C)C)c3ccccc23)cc1 [Example 52]		> 250 °C		57	
COc1cccc2c1c(S(=O)(=O)c1ccccc1)cn2CCN(C)C [Example 53]	152	238 to 240 °C			
